According to patent US20210069356A1, “ISOTOPOLOGUES OF 2-(4-CHLOROPHENYL)-N-((2-(2,6-DIOXOPIPERIDIN-3-YL)-1-OXOISOINDOLIN-5-YL)METHYL)-2,2-DIFLUOROACETAMIDE” (Celgene Corporation, priority 2018, published 2021):

What was measured:
KG-1 cell line = test: KG-1 cell proliferation, CellTiter-Glo assay; type: cell-based; conditions: Homo sapiens; KG-1 cells, 72 hours post-treatment; read-out: FCA Prolif Cell TiterGlo KG-1 72 h (IC50)
Description: (§1) The anti-proliferative activity of the test compounds was evaluated on KG-1 and KG-1a cell lines using CellTiter-Glo assay as described in U.S. Pat. No. 9,499,514 at 72 hours post-treatment.

KG-1a cell line = test: KG-1a cell proliferation, CellTiter-Glo assay; type: cell-based; conditions: Homo sapiens; KG-1a cells, 72 hours post-treatment; read-out: FCA Prolif Cell TiterGlo KG-1a 72 h (IC50)
Description: as §1

[2H]c1c([2H])c(C(F)(F)C(=O)NCc2ccc3c(c2)CN(C2CCC(=O)NC2=O)C3=O)c([2H])c([2H])c1Cl (stereo not drawn)
IC50 (KG-1 cell line): 26.2 nM
IC50 (KG-1a cell line): 31.3 nM

[2H]c1cc(C(F)(F)C(=O)NCc2ccc3c(c2)CN(C2CCC(=O)NC2=O)C3=O)ccc1Cl (stereo not drawn)
IC50 (KG-1 cell line): 15.5 nM
IC50 (KG-1a cell line): 18.1 nM

[2H]c1cc(Cl)ccc1C(F)(F)C(=O)NCc1ccc2c(c1)CN(C1CCC(=O)NC1=O)C2=O (stereo not drawn)
IC50 (KG-1 cell line): 36.9 nM
IC50 (KG-1a cell line): 29.9 nM
